Measurements published in US20090024021A1, “Methods and Systems for Using Transcranial Magnetic Stimulation and Functional Brain Mapping for Examining Cortical Sensitivity, Brain Communication, and Effects of Medication” (priority 2002, published 2009).
Entries after “also recorded” stand apart in the source; their conditions may differ.

Assays:
[1] = system: left prefrontal cortex; assay: Interleaved TMS/phMRI (BOLD fMRI) with TMS over prefrontal cortex; format: in vivo, human; conditions: for Voxels, effect of LTG (between day) / Z-score, effect of LTG (between day): Prefrontal Cortex Stimulation, LTG-Placebo
Method: Study design: We performed a randomized, double-blind, crossover trial involving two visits at least one week apart (FIG. 8). […] Serum LTG levels, RMTs, and interleaved TMS/phMRI images during both motor and then prefrontal TMS were then gathered for each subject. One week later they received LTG or placebo again, followed by identical RMT and interleaved TMS/phMRI studies.
Combined TMS and MRI: Immediately following RMT determination, interleaved TMS/phMRI acquisitions were performed in a Picker EDGE 1.5 T MR scanner with actively shielded magnet and high-performance gradients (27 mT/m, 72 T/m/sec) using a typical gradient echo, echo planar imaging (EPI) fMRI sequence (tip angle=90, TR=3 sec, FOV 27.0 cm, fifteen 7 mm thick slices, 1 mm gap). TMS was delivered using a Dantec MagPro with a special nonferromagnetic TMS coil of figure-8 design with an 8-meter cable (Dantec Medical A/S, Skovlunde, Denmark) and a room set up identical to prior TMS/fMRI studies from our group. TMS pulses and the fMRI sequence were interleaved as described before^21. Each cycle, illustrated in FIG. 9, consisted of six 21-sec sub-cycles—four Test and two task (100% RMT stimulation and 120% RMT stimulation). During each sub-cycle, the scanner acquired seven sets of 15 transverse images. During the task sub-cycles the TMS was triggered 100 ms after every […] image acquisition to produce a TMS stimulation rate of 1 Hz. The entire TMS/fMRI sequence lasted 882 sec (14.7 min).
On each visit, immediately after the Motor Cortex MRI study, subjects were removed from the scanner and the TMS device was moved to position it over the left prefrontal cortex. The left prefrontal cortex stimulation site was defined as a location 5-cm rostral and in a parasagittal plane from the site of maximal APB stimulation. Subjects then reentered the scanner for the prefrontal TMS scan, which was identical to the Motor study described above except for the TMS coil location.
Individual fMRI Data Analyses: MR scans were transferred into ANALYZE format and then further processed on Sun workstations (Sun Microsystems, Palo Alto, Calif.). Scans were checked using MEDx3.3 (Sensor Systems Inc, Sterling, Va.) for movement across runs, and then were coregistered to a mean image using automatic image registration. […] After correction of motion, we used a delayed boxcar model, employed a high-pass filter to remove signal drift, cardiac and respiratory effects, and other low frequency artifacts. Then, we spatially transformed each subject's data into the Talairach Atlas (input voxel dimensions, 2.1×2.1×8 mm, to output voxel dimensions, 4×4×4 mm), smoothed (4×2 mm) the data and generated z map with the Statistical Parametric Mapping (SPM) 96 module in MEDx3.3. We assumed an uncorrected F threshold UF P>0.99 to preserve as many voxels as possible for the cluster analysis.
Group fMRI Data Analyses: All subject's unthresholded z maps were combined based on comparison of condition (TMS vs Rest), intensity (100% RMT-TMS vs 120% RMT-TMS), visit (LTG vs Placebo). The combined group z maps were thresholded using z≧3.09 (p≦0.001) and cluster statistical weight (spatial extent threshold) of p<0.05. We used either paired or unpaired t-tests in MEDx3.3 for all comparisons of interest and both areas of stimulation.
Magnitude of BOLD time course response: To compare the magnitudes of BOLD signal changes, two types of data were recorded. The different maps of LTG and placebo were used to make a mask of left motor cortex (82 voxels) and a mask of left hippocampus (19 voxels) (FIGS. 11A and 11B bottom panels). The masks used to define location were taken as an index of relative peak intensity above noise. According to the masks' Talairach coordinates, the mean signal intensity of the highest six contiguous voxels (two in each slice) in each subject was extracted from motor cortex or hippocampus with SPM plotting in MEDx.

[2] = system: motor corticospinal pathways; conditions: volunteers or patients with complex partial seizures; cited from earlier work

## Nc1nnc(-c2cccc(Cl)c2Cl)c(N)n1 [LTG, Lamotrigine]
[1]; 100% RMT minus rest over prefrontal cortex, left hippocampus, 8 subjects, Wilcoxon p=0.04
  number of active voxels in hippocampus, compared with placebo: significantly more; also recorded: significantly increased
[1]; LTG day, within day, n = 8, 100% RMT-Rest, Left Hippocampus, Talairach −24,−8,−24
  Z-score, region of activation: 3.53
[1]; LTG day, within day, n = 8, 100% RMT-Rest, Left cingulated gyrus, Talairach −8,−8,28
  Z-score, region of activation: 4.08
[1]; LTG day, within day, n = 8, 100% RMT-Rest, Left middle frontal gyrus (BA 6), Talairach −32,4,60
  Z-score, region of activation: 4.04
[1]; LTG day, within day, n = 8, 100% RMT-Rest, Right hippocampus, Amygdala, Talairach 20,−8,−16
  Z-score, region of activation: 3.66
[1]; LTG day, within day, n = 8, 100% RMT-Rest, Right insula (BA 13), Talairach 52,−28,20
  Z-score, region of activation: 4.26
[1]; LTG day, within day, n = 8, 100% RMT-Rest, Right middle frontal gyrus, Talairach 40,48,16
  Z-score, region of activation: 3.96
[1]; LTG day, within day, n = 8, 100% RMT-Rest, Right postcentral gyrus (BA 3), Talairach 52,−16,40
  Z-score, region of activation: 3.18
[1]; LTG day, within day, n = 8, 100% RMT-Rest, Right precentral gyrus, Talairach 36,−4,28
  Z-score, region of activation: 4.02
[1]; LTG day, within day, n = 8, 120% RMT-100%
  Region of activation: No activity
[1]; LTG day, within day, n = 8, 120% RMT-Rest, Left cingulate gyrus, Talairach −8,4,36
  Z-score, region of activation: 3.98
[1]; LTG day, within day, n = 8, 120% RMT-Rest, Left medial frontal gyrus (BA 6), Talairach −48,44,−4
  Z-score, region of activation: 4.15
[1]; LTG day, within day, n = 8, 120% RMT-Rest, Left postcentral gyrus (BA 2), Talairach −56,−24,36
  Z-score, region of activation: 4.12
[1]; LTG day, within day, n = 8, 120% RMT-Rest, Left superior temporal gyrus, Talairach −60,4,−4
  Z-score, region of activation: 4.14
[1]; LTG day, within day, n = 8, 120% RMT-Rest, Right precentral gyrus, Talairach 52,−8,44
  Z-score, region of activation: 4.31
[1]; LTG day, within day, n = 8, 120% RMT-Rest, Right superior temporal gyrus, Talairach 56,−12,8
  Z-score, region of activation: 4.53
[1]; Gyrus frontal medius, Right
  Voxels, effect of LTG (between day): 35
[1]; Gyrus frontal medius, Right, Talairach 30,25,41, p < .01
  Z-score, effect of LTG (between day): 2.83
[1]; Hippocampus, Left
  Voxels, effect of LTG (between day): 19
[1]; Hippocampus, Left, Talairach −25,−11,−25, p < .05
  Z-score, effect of LTG (between day): 2.26
[1]; Insula, Right
  Voxels, effect of LTG (between day): 57
[1]; Insula, Right, Talairach 39,13,1, p < .01
  Z-score, effect of LTG (between day): 2.83
[1]; Postcentral gyrus, Right
  Voxels, effect of LTG (between day): 59
[1]; Postcentral gyrus, Right, Talairach 53,−32,40, p < .01
  Z-score, effect of LTG (between day): 2.83
[1]; Temporal lobe, Left
  Voxels, effect of LTG (between day): 112
[1]; Temporal lobe, Left, Talairach −43,15,−25, p < .001
  Z-score, effect of LTG (between day): 3.78
[1]; formal between-day analysis, 100% RMT prefrontal stimulation vs rest, 8 subjects
  brain activity in the hippocampus and the orbital frontal gyrus, compared to placebo: increased brain activity; also recorded: increases this activity
[1]; prefrontal TMS, 8 subjects, ANOVA F=1.12, p=0.326
  % BOLD signal change in left hippocampus, LTG vs placebo, entire time series: failed to show significant differences
[1]; prefrontal TMS, time points 14-17, 8 subjects, t=−2.69, p=0.009
  % BOLD change in left hippocampus compared with placebo, TMS phase: significantly increased
[2]
  resting motor threshold (RMT): significantly increased
